Patent publication US20230124862A1, “BISMUTH THIOL COMPOUNDS AND COMPOSITIONS AND METHODS OF TREATING MICROBIAL CO-INFECTIONS” (Microbion Corporation, priority 2020, published 2023)
In brackets after ≈: the same amount, converted by molar mass. Several values for one entry are separate records, joined by “and”; a condition that tells them apart may be missing. Identical values can stand only once. Like-named read-outs stand apart in the source and are kept apart here.

Legend:
[1] = assay type: in vivo, beagle dogs; settings: dog, per animal and Grp Avg, sampling times not given
Procedure: Once adequately conditioned to the restraint device and face-masks, the animals are individually exposed to the test article aerosols. Animals receive a single face-mask inhalation exposure in a ramp study design to test article aerosols for up to 60 min. Animal observations during and post exposure determine the tolerance of inhaled BisEDT aerosols.
Blood Collections and Bioanalytical Analysis: Blood are collected for pharmacokinetic (PK) analysis prior to exposure, then at 4 hr (±5 min) post exposure, and again on Day 1, Day 2, Day 7 (pre- and 4 hr (±5 min)-post exposure), Day 8, Day 9, Day 10, Day 11, Day 12, Day 13, and Day 14. A total of 0.25 mL is collected at each timepoint. No PK blood is collected from the vehicle control (Group 1) animals; only animals exposed to BisEDT have blood collected for PK analysis. Collected samples are flash frozen without processing for shipment to Medpace for bioanalytical analysis. Additional blood is collected from all animals in all groups for hematology (1 mL) and clinical chemistry (1 mL) at baseline, Day 7 (pre-exposure), and again at euthanasia. Blood (2-2 mL) is collected from all animals at necropsy for coagulation analysis (d-Dimer, fibrinogen, PT, and PTT).
For hematology analyses, whole blood (1 ml) will be collected with vacutainers containing K3EDTA as an anticoagulant.
Hematology samples are analyzed by automated (ADVIA™ 120 Hematology System, Siemens Medical Solutions Diagnostics, Tarrytown, N.Y.) analyses. Disposition will be recorded on the sample processing form.

P. aeruginosa = settings: control strain ATCC 27853; cited from earlier work
E. coli ATCC 25922 = settings: cited from earlier work
Klebsiella pneumoniae = settings: K. pneumoniae ATCC BAA-1705; CLSI established QC range; cited from earlier work
Escherichia coli = experiment: Broth microdilution MIC (Example 12); assay type: cell-based
[2] = system: Burkholderia cepacia complex; assay type: cell-based, Burkholderia spp.; settings: initial MIC testing
[3] = Group 2 (55-56 ug/kg lung deposited)
[4] = Group 4 (176-197 ug/kg lung deposited)

C1C[S][Bi]([S]CC[S][Bi]2[S]CC[S]2)[S]1 [BisEDT, Bismuth-1,2-ethanedithiol]
BASO [1, 3]: 0.12 ^3/uL (2×) and 0.15 ^3/uL and 0.08 ^3/uL (2×) and 0.11 ^3/uL and 0.10 ^3/uL and 0.07 ^3/uL and 0.13 ^3/uL
EOS [1, 3]: 0.30 ^3/uL and 0.45 ^3/uL and 0.39 ^3/uL and 0.14 ^3/uL and 0.09 ^3/uL and 0.06 ^3/uL and 0.22 ^3/uL and 0.27 ^3/uL and 0.23 ^3/uL
HCT [1, 3]: 45.8% and 43.1% and 41.8% and 49.0% and 43.7% and 42.9% and 47.4% and 43.4% and 42.4%
HGB [1, 3]: 15.6 g/dL and 15.0 g/dL (3×) and 14.2 g/dL and 16.4 g/dL and 14.3 g/dL (2×) and 16.0 g/dL
LUC [1, 3]: 0.01 ^3/uL (5×) and 0.02 ^3/uL (4×)
LYMP [1, 3]: 2.81 ^3/uL and 2.73 ^3/uL and 2.09 ^3/uL and 2.27 ^3/uL and 2.82 ^3/uL and 2.61 ^3/uL and 2.54 ^3/uL and 2.78 ^3/uL and 2.35 ^3/uL
MCH [1, 3]: 22.8 pg (2×) and 23.2 pg (2×) and 22.7 pg and 22.3 pg (2×) and 21.9 pg and 23.0 pg
MCHC [1, 3]: 34.1 g/dL (2×) and 34.9 g/dL and 33.4 g/dL and 34.4 g/dL and 33.2 g/dL and 33.8 g/dL and 34.7 g/dL and 33.7 g/dL
MCV [1, 3]: 67.0 fL and 66.4 fL and 66.5 fL and 69.5 fL and 64.8 fL and 66.0 fL and 68.3 fL and 65.6 fL and 66.3 fL
MONO [1, 3]: 0.63 ^3/uL and 0.67 ^3/uL and 0.53 ^3/uL and 0.50 ^3/uL and 0.51 ^3/uL (2×) and 0.57 ^3/uL and 0.59 ^3/uL and 0.52 ^3/uL
NEUT [1, 3]: 5.31 ^3/uL and 5.11 ^3/uL and 2.88 ^3/uL and 3.96 ^3/uL and 4.26 ^3/uL and 4.83 ^3/uL and 4.64 ^3/uL and 4.69 ^3/uL and 3.86 ^3/uL
PLT [1, 3]: 197 ^3/uL and 166 ^3/uL and 161 ^3/uL and 206 ^3/uL and 294 ^3/uL and 304 ^3/uL and 201.5 ^3/uL and 230.0 ^3/uL and 232.5 ^3/uL
RBC [1, 3]: 6.83 ^6/uL and 6.49 ^6/uL and 6.28 ^6/uL and 7.05 ^6/uL and 6.74 ^6/uL and 6.50 ^6/uL and 6.94 ^6/uL and 6.62 ^6/uL and 6.39 ^6/uL
RET % [1, 3]: 0.34% and 0.55% and 0.60% and 0.65% and 0.25% and 0.31% and 0.50% and 0.40% and 0.46%
WBC [1, 3]: 9.18 ^3/uL and 9.13 ^3/uL and 5.99 ^3/uL and 6.99 ^3/uL and 7.77 ^3/uL and 8.10 ^3/uL and 8.09 ^3/uL and 8.45 ^3/uL and 7.05 ^3/uL
BASO [1, 4]: 0.07 ^3/uL (3×) and 0.04 ^3/uL (2×) and 0.09 ^3/uL (3×) and 0.06 ^3/uL and 0.08 ^3/uL (2×) and 0.05 ^3/uL and 0.10 ^3/uL (3×)
EOS [1, 4]: 0.48 ^3/uL and 0.50 ^3/uL and 0.35 ^3/uL and 0.95 ^3/uL and 0.77 ^3/uL and 0.47 ^3/uL and 0.72 ^3/uL and 0.64 ^3/uL and 0.41 ^3/uL and 0.18 ^3/uL and 0.13 ^3/uL and 0.19 ^3/uL (2×) and 0.21 ^3/uL and 0.17 ^3/uL
HCT [1, 4]: 42.7% and 47.5% and 45.4% and 41.9% and 50.6% and 47.6% and 42.30% and 49.05% and 46.50% and 39.8% and 40.7% and 37.1% and 44.2% and 38.45% and 42.45%
HGB [1, 4]: 14.8 g/dL and 16.0 g/dL and 14.6 g/dL and 14.7 g/dL and 16.6 g/dL and 15.4 g/dL and 14.75 g/dL and 16.30 g/dL and 15.00 g/dL and 13.7 g/dL and 13.8 g/dL and 12.8 g/dL and 14.3 g/dL and 13.25 g/dL and 14.05 g/dL
LUC [1, 4]: 0.01 ^3/uL (7×) and 0.02 ^3/uL (8×)
LYMP [1, 4]: 2.68 ^3/uL and 3.18 ^3/uL and 2.78 ^3/uL (2×) and 2.88 ^3/uL and 3.04 ^3/uL and 2.82 ^3/uL and 3.11 ^3/uL and 2.80 ^3/uL and 2.46 ^3/uL and 2.59 ^3/uL and 2.32 ^3/uL and 2.87 ^3/uL and 2.39 ^3/uL and 2.73 ^3/uL
MCH [1, 4]: 23.0 pg and 23.4 pg and 22.9 pg (2×) and 22.8 pg and 23.1 pg and 22.90 pg (2×) and 23.25 pg and 24.1 pg and 20.9 pg and 21.0 pg and 24.2 pg and 22.55 pg (2×)
MCHC [1, 4]: 34.7 g/dL and 33.6 g/dL and 32.2 g/dL and 35.2 g/dL and 32.8 g/dL and 32.4 g/dL (2×) and 34.95 g/dL and 33.20 g/dL (2×) and 32.30 g/dL and 34.4 g/dL and 34.0 g/dL and 34.6 g/dL and 34.50 g/dL
MCV [1, 4]: 66.3 fL and 69.7 fL and 71.3 fL and 64.8 fL and 70.4 fL and 70.9 fL and 65.55 fL and 70.05 fL and 71.10 fL and 70.1 fL and 61.6 fL and 60.8 fL and 74.7 fL and 65.45 fL and 68.15 fL
MONO [1, 4]: 0.39 ^3/uL (2×) and 0.37 ^3/uL (2×) and 0.49 ^3/uL and 0.50 ^3/uL (2×) and 0.44 ^3/uL (2×) and 0.38 ^3/uL and 0.73 ^3/uL and 0.45 ^3/uL and 0.61 ^3/uL and 0.59 ^3/uL and 0.56 ^3/uL
NEUT [1, 4]: 4.61 ^3/uL and 5.96 ^3/uL (2×) and 6.30 ^3/uL and 5.98 ^3/uL and 5.95 ^3/uL and 6.74 ^3/uL and 5.30 ^3/uL and 6.52 ^3/uL and 6.73 ^3/uL and 4.11 ^3/uL and 3.60 ^3/uL and 7.39 ^3/uL and 5.17 ^3/uL and 5.75 ^3/uL
PLT [1, 4]: 208 ^3/uL and 214 ^3/uL and 213 ^3/uL and 246 ^3/uL and 238 ^3/uL and 251 ^3/uL and 227.00 ^3/uL and 226.00 ^3/uL and 232.00 ^3/uL and 257 ^3/uL and 308 ^3/uL and 313 ^3/uL and 248 ^3/uL and 285.00 ^3/uL and 278.00 ^3/uL
RBC [1, 4]: 6.44 ^6/uL and 6.81 ^6/uL and 6.37 ^6/uL and 6.46 ^6/uL and 7.19 ^6/uL and 6.71 ^6/uL and 6.45 ^6/uL and 7.00 ^6/uL and 6.54 ^6/uL and 5.68 ^6/uL and 6.61 ^6/uL and 6.11 ^6/uL and 5.92 ^6/uL and 5.90 ^6/uL and 6.27 ^6/uL
RET % [1, 4]: 0.41% and 0.33% and 0.58% and 0.27% and 0.62% and 0.43% and 0.34% and 0.48% and 0.51% (2×) and 1.07% and 0.88% and 0.83% and 0.79% and 0.86%
WBC [1, 4]: 8.23 ^3/uL and 10.09 ^3/uL and 9.86 ^3/uL and 10.41 ^3/uL and 10.37 ^3/uL and 10.50 ^3/uL and 9.32 ^3/uL (2×) and 10.23 ^3/uL and 10.18 ^3/uL and 10.21 ^3/uL and 7.45 ^3/uL and 6.63 ^3/uL and 11.18 ^3/uL and 8.42 ^3/uL
Expected MIC: goal (acceptable range) (P. aeruginosa): 1 to 2 µg/mL
QC Range 24 hr (E. coli ATCC 25922; E. coli ATCC 25922, established QC range, 24 hr): 0.5-4
Expected MIC: goal (acceptable range) (E. coli ATCC 25922; control strain ATCC 25922): 1 µg/mL

C[C@@H](O)[C@H]1C(=O)N2C(C(=O)O)=C(S[C@@H]3CN[C@H](C(=O)N(C)C)C3)[C@H](C)[C@H]12 [MEM]
QC range of MIC (Klebsiella pneumoniae): (8-64) μg/mL
MIC (Escherichia coli; E. coli ATCC 25922, ATCC QC organism (Table 102)): ≤0.008 µg/mL
MIC (Escherichia coli; E. coli ATCC 35218, ATCC QC organism (Table 102)): ≤0.008 µg/mL
MIC (Escherichia coli; E. coli ATCC 35218, ESBL): ≤0.008 µg/mL
MIC (Escherichia coli; E. coli ATCC BAA-2471, NDM): >8 µg/mL
MIC (Escherichia coli; E. coli CDC 114, ESBL/KPC): 2 µg/mL (≈ 5.22 µM)
MIC (Escherichia coli; E. coli CDC 118, ESBL/NDM): 0.06 µg/mL (≈ 0.156 µM)
MIC (Escherichia coli; E. coli CDC 435, NDM): >8 µg/mL
MIC (Escherichia coli; E. coli CDC 451, KPC): 1 µg/mL (≈ 2.61 µM)
MIC (Escherichia coli; E. coli CDC 503, ESBL/NDM): 8 µg/mL (≈ 20.9 µM)
MIC (Escherichia coli; E. coli MMX 5745, KPC): 2 µg/mL (≈ 5.22 µM)
MIC (Escherichia coli; E. coli MMX 5755, ESBL): 0.015 µg/mL (≈ 0.0391 µM)
MIC (Escherichia coli; E. coli MMX 5756, ESBL): ≤0.008 µg/mL
MIC (Escherichia coli; E. coli MMX 5758, ESBL): ≤0.008 µg/mL
MIC ([2]; B. cenocepacia isolate 0548 (CIP-R)): 4 µg/mL (≈ 10.4 µM)
MIC ([2]; B. cenocepacia isolate 0813 (CPI-I)): 2 µg/mL (≈ 5.22 µM)
MIC ([2]; B. cenocepacia isolate 1631): 4 µg/mL (≈ 10.4 µM)
MIC ([2]; B. cenocepacia isolate 1783): 4 µg/mL (≈ 10.4 µM)
MIC ([2]; B. cenocepacia isolate 8555): 4 µg/mL (≈ 10.4 µM)
MIC ([2]; B. cepacia isolate 0546): 4 µg/mL (≈ 10.4 µM)
MIC ([2]; B. cepacia isolate 0547): 2 µg/mL (≈ 5.22 µM)
MIC ([2]; B. cepacia isolate 1793): 4 µg/mL (≈ 10.4 µM)
MIC ([2]; B. cepacia isolate 1794): 4 µg/mL (≈ 10.4 µM)
MIC ([2]; B. cepacia isolate 9040): 4 µg/mL (≈ 10.4 µM)
MIC ([2]; B. multivorans isolate 1580 (CIP-R)): 2 µg/mL (≈ 5.22 µM)
MIC ([2]; B. multivorans isolate 1791): 4 µg/mL (≈ 10.4 µM)
MIC ([2]; B. multivorans isolate 1795 (MEM-I, CIP-R)): 8 µg/mL (≈ 20.9 µM)
MIC ([2]; B. multivorans isolate 5665 (CIP-I)): 2 µg/mL (≈ 5.22 µM)
MIC ([2]; B. multivorans isolate 8952 (CIP-I)): 2 µg/mL (≈ 5.22 µM)
